Measured values: US7358249B2, “Heterocyclic compounds having inhibitory activity against HIV integrase” (Shionogi & Co., Ltd., priority 2002, dated 2008)

Row | melting point | Structure (SMILES)
1 | 256 °C (dec.) | COC(=O)c1nc(N2CCOC2=O)c2cc(Cc3ccc(F)cc3)cnc2c1O
2 | 228 to 229 °C | COC(=O)c1nc(C(=O)NS(=O)(=O)c2ccccc2)c2cc(Cc3ccc(F)cc3)cnc2c1O
3 | 145 to 146 °C | COCCNC(=O)c1nc(C(=O)OC)c(O)c2ncc(Cc3ccc(F)cc3)cc12
4 | 182 to 184 °C | COC(=O)c1nc(N2C(=O)COCC2=O)c2cc(Cc3ccc(F)cc3)cnc2c1O
5 | 206 to 207 °C | CN(C)NC(=O)c1nc(C#CC2=CCCC2)c2cc(Cc3ccc(F)cc3)cnc2c1O
6 | 198 °C | COCCNC(=O)c1nc(C#CCNS(C)(=O)=O)c2cc(Cc3ccc(F)cc3)cnc2c1O
7 | 229 to 230 °C (dec.) | CN(C)NC(=O)c1nc(C#CCNS(C)(=O)=O)c2cc(Cc3ccc(F)cc3)cnc2c1O
8 | 170 to 172 °C | COC(=O)c1nc(NS(=O)(=O)NC(=O)OC(C)C)c2cc(Cc3ccc(F)cc3)cnc2c1O
9 | 241 to 242 °C | COCCNC(=O)c1nc(NS(C)(=O)=O)c2cc(Cc3ccc(F)cc3)cnc2c1O
10 | 152 °C | COC(=O)c1cc(Br)c2cc(Cc3ccc(F)cc3)cnc2c1O
11 | 234 to 235 °C (dec.) | COCCOC(=O)c1cc(C(=O)O)c2cc(Cc3ccc(F)cc3)cnc2c1O
12 | 239 to 242 °C | CC(=O)c1cc(C(=O)O)c2cc(Cc3ccc(F)cc3)cnc2c1O
13 | 226 to 228 °C | COCCCC(=O)c1cc(C(=O)O)c2cc(Cc3ccc(F)cc3)cnc2c1O
14 | 261.5 to 262.5 °C | COC(=O)c1cc(NC(=N)N)c2cc(Cc3ccc(F)cc3)cnc2c1O.Cl
15 | 90 to 91 °C | CCN(CCOC)C(=O)c1cc(C(=O)OC)c(O)c2ncc(Cc3ccc(F)cc3)cc12
16 | 229 to 230 °C | COC(=O)c1cc(C(=O)NCCN)c2cc(Cc3ccc(F)cc3)cnc2c1O
17 | 244 to 245 °C | COC(=O)c1cc(Cc2cc(C(=O)OC)c(O)c3ncc(Cc4ccc(F)cc4)cc23)c2cc(Cc3ccc(F)cc3)cnc2c1O
18 | 173 to 175 °C | COC(=O)c1cc(CC#N)c2cc(Cc3ccc(F)cc3)cnc2c1O
19 | 209 to 211 °C | COC(=O)c1cc(CC(N)=O)c2cc(Cc3ccc(F)cc3)cnc2c1O
20 | 218 to 220 °C | COC(=O)c1cc(CC(=O)O)c2cc(Cc3ccc(F)cc3)cnc2c1O
21 | 212 to 213 °C | NC(=O)c1cc(C(=O)O)c2cc(Cc3ccc(F)cc3)cnc2c1O

Row | melting point | Structure (SMILES)
22 | 186 to 188 °C | CONC(=O)c1cc(C(=O)OC)c2cc(Cc3ccc(F)cc3)cnc2c1O
23 | 166 to 168 °C | COCCOC(=O)c1cc(C(=O)NOC)c(O)c2ncc(Cc3ccc(F)cc3)cc12
24 | 165 to 167 °C | COCCNC(=O)c1cc(C(=O)OC)c2cc(Cc3ccc(F)cc3)cnc2c1O
25 | 140 to 141 °C | COC(=O)CCc1cc(C(=O)OC)c(O)c2c1CC(Cc1ccc(F)cc1)CN2 (stereo not drawn)
26 | 250 to 252 °C | COC(=O)c1cc(-c2ccccc2C(=O)O)c2cc(Cc3ccc(F)cc3)cnc2c1O
27 | 280 to 282 °C | CCNC(=O)Nc1cc(C(=O)OC)c(O)c2ncc(Cc3ccc(F)cc3)cc12
28 | 247 to 249 °C | COC(=O)c1cc(NC(=O)c2ccccc2)c2cc(Cc3ccc(F)cc3)cnc2c1O
29 | 239 to 240 °C | COC(=O)c1cc(NC(=O)Cc2ccc(F)cc2)c2cc(Cc3ccc(F)cc3)cnc2c1O
30 | 253 to 254 °C | COC(=O)c1cc(NC(=O)c2ccc(Cl)cc2)c2cc(Cc3ccc(F)cc3)cnc2c1O
31 | 119 to 120 °C | COC(=O)c1cc(N2CCOCC2)c2cc(Cc3ccc(F)cc3)cnc2c1O
32 | 133 to 134 °C | COC(=O)c1cc(N2CCCCC2)c2cc(Cc3ccc(F)cc3)cnc2c1O
33 | 202 to 203 °C | CCC(=O)c1cc(N2CCCC2=O)c2cc(Cc3ccc(F)cc3)cnc2c1O
34 | 168 to 170 °C | COC(=O)C(=O)Nc1cc(C(=O)OC)c(O)c2ncc(Cc3ccc(F)cc3)cc12
35 | 182 to 183 °C | COC(=O)c1cc(NC(=O)c2cc(C)on2)c2cc(Cc3ccc(F)cc3)cnc2c1O
36 | 230 to 232 °C | CC(=O)N1CCC(OC(=O)c2cc(C(=O)O)c3cc(Cc4ccc(F)cc4)cnc3c2O)CC1
37 | 129 to 131 °C | CC(=O)NNC(=O)c1cc(C(=O)OC2CCN(C(C)=O)CC2)c(O)c2ncc(Cc3ccc(F)cc3)cc12
38 | 89 to 90 °C | COCCC(=O)Nc1cc(C(=O)OC2CCN(C(C)=O)CC2)c(O)c2ncc(Cc3ccc(F)cc3)cc12
39 | 178 to 179 °C | COC(=O)c1cc(C#N)c2cc(Cc3ccc(F)cc3)cnc2c1O
40 | 258 to 259 °C | COC(=O)c1cc(C(=O)Nc2nccs2)c2cc(Cc3ccc(F)cc3)cnc2c1O
41 | 198 to 199 °C | COC(=O)c1cc(C(=O)NCCN2CCOCC2)c2cc(Cc3ccc(F)cc3)cnc2c1O
42 | > 250 °C | COC(=O)c1cc(C(=O)NNS(C)(=O)=O)c2cc(Cc3ccc(F)cc3)cnc2c1O

Row | melting point | Structure (SMILES)
43 | 136 to 137 °C | COC(=O)c1cc(C(=O)N2CCCOCC2)c2cc(Cc3ccc(F)cc3)cnc2c1O
44 | 233 to 234 °C | COC(=O)c1cc(C(=O)NN2CCCCC2)c2cc(Cc3ccc(F)cc3)cnc2c1O
45 | 181 to 182 °C | COCC(=O)NNC(=O)c1cc(C(=O)OC)c(O)c2ncc(Cc3ccc(F)cc3)cc12
46 | 192 to 193 °C | C#CCNC(=O)c1cc(C(=O)OC)c(O)c2ncc(Cc3ccc(F)cc3)cc12
47 | 235 to 238 °C | COC(=O)c1cc(C(=O)N2CCC(C(N)=O)CC2)c2cc(Cc3ccc(F)cc3)cnc2c1O
48 | 246 to 247 °C | COC(=O)c1cc(C(=O)NCC(=O)O)c2cc(Cc3ccc(F)cc3)cnc2c1O
49 | 221 to 222 °C | COC(=O)c1cc(C(=O)NC2CCCC2)c2cc(Cc3ccc(F)cc3)cnc2c1O
50 | 208 to 209 °C | COC(=O)c1cc(C(=O)NNC(C)=O)c2cc(Cc3ccc(F)cc3)cnc2c1O
51 | 249 to 250 °C | COC(=O)c1cc(C(=O)NNC=O)c2cc(Cc3ccc(F)cc3)cnc2c1O
52 | 198 to 199 °C | COC(=O)c1cc(C(=O)NN(C)C)c2cc(Cc3ccc(F)cc3)cnc2c1O
53 | 156 to 157 °C | COC(=O)c1cc(C(=O)NN)c2cc(Cc3ccc(F)cc3)cnc2c1O
54 | 247 to 248 °C | COC(=O)c1cc(C(=O)NCC(N)=O)c2cc(Cc3ccc(F)cc3)cnc2c1O
55 | 175 to 176 °C | COC(=O)c1cc(C(=O)NCCOC(C)C)c2cc(Cc3ccc(F)cc3)cnc2c1O
56 | 194 to 195 °C | COC(=O)c1cc(C(=O)NCCOc2ccccc2)c2cc(Cc3ccc(F)cc3)cnc2c1O
57 | 209 to 210 °C | COC(=O)CNC(=O)c1cc(C(=O)OC)c(O)c2ncc(Cc3ccc(F)cc3)cc12
58 | 204 to 205 °C | COC(=O)c1cc(C(=O)NC(C)(C)CO)c2cc(Cc3ccc(F)cc3)cnc2c1O
59 | 227 to 229 °C | COC(=O)c1cc(C(=O)NNC(=O)c2ccccc2)c2cc(Cc3ccc(F)cc3)cnc2c1O
60 | 161 to 162 °C | COC(=O)c1cc(C(=O)N2CCC(CO)CC2)c2cc(Cc3ccc(F)cc3)cnc2c1O
61 | 188 to 189 °C | CNNC(=O)c1cc(C(=O)OC)c(O)c2ncc(Cc3ccc(F)cc3)cc12

Row | Structure (SMILES) | melting point
62 | COC(=O)c1cc(C(=O)[O-])c2cc(Cc3ccc(F)cc3)cnc2c1O.[Na+] | > 208 °C
63 | COC(=O)c1cc(C(=O)O)c2cc(Cc3ccc(F)cc3)cnc2c1O.NCCN | 164 °C
